Test results taken from PubChem BioAssay (NCI).
Values joined by “and” are separate entries in the source; they are usually repeats but may differ in a detail not shown here. Equal values may be shown once.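 Growth conditions: 96-well plates. Treatment: test compound, 48 hours, 5 concentrations. Analysis: linear interpolation between bracketing concentrations; unreached endpoints set to highest concentration. At the GI50, growth is halved. The concentration for full growth arrest is given as TGI.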

What was measured:
Assay in all cases: inhibition of tumour cell growth, NCI panel, 48 h
IGROV1 ovarian = tested on: IGROV1 ovarian
TK-10 renal = tested on: TK-10 renal
SK-MEL-2 melanoma = tested on: SK-MEL-2 melanoma
SK-MEL-5 melanoma = tested on: SK-MEL-5 melanoma
T-47D breast = tested on: T-47D breast
RXF 393 renal = tested on: RXF 393 renal
NCI-H23 lung = tested on: NCI-H23 lung
OVCAR-5 ovarian = tested on: OVCAR-5 ovarian
MDA-MB-231 breast = tested on: MDA-MB-231 breast
OVCAR-8 ovarian = tested on: OVCAR-8 ovarian

## Nc1n[nH]c(N)c1N=Nc1ccc(O)cc1
IGROV1 ovarian
  GI50: 20.6 µM
  TGI: 81.4 µM
TK-10 renal
  GI50: 25.7 µM
  TGI: 70.4 µM
SK-MEL-2 melanoma
  GI50: 14.4 µM
  TGI: 57 µM
SK-MEL-5 melanoma
  GI50: 13.9 µM
  TGI: 30.9 µM
T-47D breast
  GI50: 14.2 µM
  TGI: 87.5 µM
RXF 393 renal
  GI50: 18.4 µM
  TGI: 43.9 µM
NCI-H23 lung
  GI50: 19.1 µM
  TGI: 62.3 µM
OVCAR-5 ovarian
  GI50: 23.5 µM
  TGI: > 100 µM
MDA-MB-231 breast
  GI50: 16.8 µM
  TGI: 82.8 µM
OVCAR-8 ovarian
  GI50: 18 µM
  TGI: > 100 µM

## CC1=C(C(=O)Nc2ccc(F)c(Cl)c2)C(c2ccccc2O)NC(=O)N1 (stereo not given)
IGROV1 ovarian
  GI50: 50.2 µM
  TGI: > 100 µM
TK-10 renal
  GI50: 32.4 µM
  TGI: 67.9 µM
SK-MEL-2 melanoma
  GI50: > 100 µM
  TGI: > 100 µM
SK-MEL-5 melanoma
  GI50: 41.2 µM
  TGI: > 100 µM
T-47D breast
  GI50: 42.4 µM
  TGI: > 100 µM
RXF 393 renal
  GI50: > 100 µM
  TGI: > 100 µM
NCI-H23 lung
  GI50: > 100 µM
  TGI: > 100 µM
OVCAR-5 ovarian
  GI50: > 100 µM
  TGI: > 100 µM
MDA-MB-231 breast
  GI50: 27.4 µM
  TGI: > 100 µM
OVCAR-8 ovarian
  GI50: > 100 µM
  TGI: > 100 µM

## O=NN(CCCl)C(=O)NC1CCC(=O)NC1=O (stereo not given)
IGROV1 ovarian
  TGI: 1140 µM
TK-10 renal
  TGI: 1050 µM
SK-MEL-2 melanoma
  TGI: 405 µM
SK-MEL-5 melanoma
  TGI: 273 µM
T-47D breast
  TGI: 892 µM
RXF 393 renal
  TGI: 583 µM
NCI-H23 lung
  TGI: 842 µM
OVCAR-5 ovarian
  TGI: > 1210 µM
MDA-MB-231 breast
  TGI: 674 µM
OVCAR-8 ovarian
  TGI: 293 µM

## O=C1CSC(c2ccccc2O)N1c1nnc(Cn2ccnc2)o1 (stereo not given)
IGROV1 ovarian
  GI50: 16 µM
  TGI: 37 µM
TK-10 renal
  GI50: 14.1 µM
  TGI: > 100 µM
SK-MEL-2 melanoma
  GI50: 15.2 µM
  TGI: 36.4 µM
SK-MEL-5 melanoma
  GI50: 7.4 µM
  TGI: 20.2 µM
T-47D breast
  GI50: 6.11 µM
  TGI: 27.2 µM
RXF 393 renal
  GI50: 22.7 µM
  TGI: > 100 µM
NCI-H23 lung
  GI50: 14.9 µM
  TGI: 65 µM
OVCAR-5 ovarian
  GI50: 22.1 µM
  TGI: 50.7 µM
MDA-MB-231 breast
  GI50: 6.25 µM
  TGI: 71.4 µM
OVCAR-8 ovarian
  GI50: 17.8 µM
  TGI: > 100 µM

## CCN1C(=O)N(CC)C2C1NN=c1s/c(=C\c3ccc[nH]3)c(=O)n12 (stereo not given)
IGROV1 ovarian
  GI50: 0.838 µM
  TGI: > 100 µM
TK-10 renal
  GI50: > 47.8 µM
  TGI: > 100 µM
SK-MEL-2 melanoma
  GI50: 0.502 µM
  TGI: > 100 µM
SK-MEL-5 melanoma
  GI50: 0.309 µM
  TGI: > 41.5 µM
T-47D breast
  GI50: 0.4 µM
  TGI: > 100 µM
RXF 393 renal
  GI50: 0.286 µM
  TGI: 2.19 µM
NCI-H23 lung
  GI50: 1.34 µM
  TGI: > 100 µM
OVCAR-5 ovarian
  GI50: 1.59 µM
  TGI: > 100 µM
MDA-MB-231 breast
  GI50: 3.01 µM
  TGI: > 100 µM
OVCAR-8 ovarian
  GI50: 0.85 µM
  TGI: > 100 µM

## CC(=O)O.CC(=O)O.CC(=O)O.CC(=O)O.[Rh].[Rh]
IGROV1 ovarian
  GI50: 34 µM
  TGI: 91.1 µM
TK-10 renal
  GI50: 18.3 µM
  TGI: 56.4 µM
SK-MEL-2 melanoma
  GI50: 30.7 µM
  TGI: 81.4 µM
SK-MEL-5 melanoma
  GI50: 18.6 µM
  TGI: 37 µM
T-47D breast
  GI50: 14.9 µM
  TGI: > 100 µM
RXF 393 renal
  GI50: 10.5 µM
  TGI: 78.3 µM
NCI-H23 lung
  GI50: 32.1 µM
  TGI: > 100 µM
OVCAR-5 ovarian
  GI50: 20.5 µM
  TGI: 52.4 µM
MDA-MB-231 breast
  GI50: 48.6 µM
  TGI: > 100 µM
OVCAR-8 ovarian
  GI50: 27.6 µM
  TGI: > 100 µM

## COc1cc2c(c(OC)c1OC)-c1c(cc3c(c1OC)OCO3)CC(C)C(C)(O)C2OC(=O)c1ccccc1 (stereo not given)
IGROV1 ovarian
  TGI: > 100 µM
TK-10 renal
  TGI: > 100 µM
SK-MEL-2 melanoma
  TGI: 80.5 µM
SK-MEL-5 melanoma
  TGI: > 100 µM
T-47D breast
  TGI: > 100 µM
RXF 393 renal
  TGI: 86.2 µM
NCI-H23 lung
  TGI: > 100 µM
OVCAR-5 ovarian
  TGI: > 100 µM
MDA-MB-231 breast
  TGI: 57.8 µM
OVCAR-8 ovarian
  TGI: > 100 µM

## COc1cccc(CC(C)=C(c2ccc(OCCCN(C)C)cc2)c2ccc(OCCCN(C)C)cc2)c1
IGROV1 ovarian
  GI50: 0.549 µM
  TGI: 1.19 µM
TK-10 renal
  GI50: 1.35 µM
  TGI: 3.01 µM
SK-MEL-2 melanoma
  GI50: 0.601 µM
  TGI: 1.65 µM
SK-MEL-5 melanoma
  GI50: 0.57 µM
  TGI: 1.31 µM
T-47D breast
  GI50: 0.437 µM
  TGI: 0.884 µM
RXF 393 renal
  GI50: 0.597 µM
  TGI: 2.57 µM
NCI-H23 lung
  GI50: 2.87 µM
  TGI: 6.31 µM
OVCAR-5 ovarian
  GI50: 0.707 µM
  TGI: 2.06 µM
MDA-MB-231 breast
  GI50: 0.457 µM
  TGI: 0.869 µM
OVCAR-8 ovarian
  GI50: 0.645 µM
  TGI: 1.8 µM

## O=c1cccc(C#CC#CCCCO)o1
IGROV1 ovarian
  GI50: 2.65 µM
  TGI: > 22.1 µM
TK-10 renal
  GI50: 2.97 µM
  TGI: 9.55 µM
SK-MEL-2 melanoma
  GI50: 12.6 µM
  TGI: > 100 µM
SK-MEL-5 melanoma
  GI50: 12.3 µM
  TGI: 27.3 µM
T-47D breast
  GI50: 3.64 µM
  TGI: 27.3 µM
RXF 393 renal
  GI50: 3.27 µM
  TGI: 11.5 µM
NCI-H23 lung
  GI50: 4.17 µM
  TGI: 11.7 µM
OVCAR-5 ovarian
  GI50: 5.57 µM
  TGI: 11.6 µM
MDA-MB-231 breast
  GI50: 1.99 µM
  TGI: 4.82 µM
OVCAR-8 ovarian
  GI50: 4.33 µM
  TGI: > 35.8 µM

## Cc1oc2c(c1C(=O)N1CC[C@@H](N)C1)C(=O)c1c(c(O)c3ccccc3c1O)C2=O
IGROV1 ovarian
  GI50: 1.27 µM
  TGI: 3.94 µM
TK-10 renal
  GI50: 3.07 µM
  TGI: 16.3 µM
SK-MEL-2 melanoma
  GI50: 11 µM
  TGI: 23.9 µM
SK-MEL-5 melanoma
  GI50: 3.97 µM
  TGI: 16.5 µM
T-47D breast
  GI50: 0.863 µM
  TGI: 7.86 µM
RXF 393 renal
  GI50: 2.53 µM
  TGI: 11.3 µM
NCI-H23 lung
  GI50: 2.61 µM
  TGI: 12.2 µM
OVCAR-5 ovarian
  GI50: 5.2 µM
  TGI: 18.9 µM
MDA-MB-231 breast
  GI50: 2.26 µM
  TGI: 9.06 µM
OVCAR-8 ovarian
  GI50: 1.25 µM
  TGI: 4.65 µM

## O=C1CCC(N2C(=O)c3cccc(NCCCC4CCN(CCNC(=O)c5cc6c(o5)C(=O)c5ccccc5C6=O)CC4)c3C2=O)C(=O)N1 (stereo not given)
IGROV1 ovarian
  GI50: 0.576 µM
  TGI: 2.3 µM
TK-10 renal
  GI50: 2.25 µM
  TGI: 4.4 µM
SK-MEL-2 melanoma
  GI50: 1.27 µM
  TGI: 3.6 µM
SK-MEL-5 melanoma
  GI50: 0.163 µM
  TGI: 0.303 µM
T-47D breast
  GI50: 1.82 µM
  TGI: 11 µM
RXF 393 renal
  GI50: 1.03 µM
  TGI: 3.08 µM
NCI-H23 lung
  GI50: 0.159 µM
  TGI: 0.399 µM
OVCAR-5 ovarian
  GI50: 0.653 µM
  TGI: 2 µM
MDA-MB-231 breast
  GI50: 0.67 µM
  TGI: 6.83 µM
OVCAR-8 ovarian
  GI50: 1.41 µM
  TGI: 7.18 µM

## O=S(=O)(NC1=NCCN1C(=S)SN1CCn2c1nsc2=S)c1cccc(OC(F)(F)F)c1
IGROV1 ovarian
  GI50: 9.86 µM
  TGI: 46.6 µM
TK-10 renal
  GI50: 13.8 µM
  TGI: 29.7 µM
SK-MEL-2 melanoma
  GI50: 16 µM
  TGI: 41.5 µM
SK-MEL-5 melanoma
  GI50: 16.6 µM
  TGI: 32.8 µM
T-47D breast
  GI50: 12.3 µM
  TGI: 39.4 µM
RXF 393 renal
  GI50: 2.42 µM
  TGI: 6 µM
NCI-H23 lung
  GI50: 12.8 µM
  TGI: 32.1 µM
OVCAR-5 ovarian
  GI50: 16.4 µM
  TGI: 30 µM
MDA-MB-231 breast
  GI50: 14.1 µM
  TGI: 35.4 µM
OVCAR-8 ovarian
  GI50: 11 µM
  TGI: 65.1 µM

## C=CCn1c(=O)c2cnc(Nc3ccc(N4CCN(C)CC4)cc3)nc2n1-c1cccc(C(C)(C)O)n1
IGROV1 ovarian
  GI50: 0.184 µM and 0.225 µM
  TGI: 15.5 µM and > 5.26 µM
TK-10 renal
  GI50: 0.1 µM and 0.31 µM
  TGI: 5.94 µM and > 10 µM
SK-MEL-2 melanoma
  GI50: 0.118 µM and 0.266 µM
  TGI: 0.956 µM and 2.99 µM
SK-MEL-5 melanoma
  GI50: 0.231 µM and 0.442 µM
  TGI: 1.04 µM and 7.76 µM
T-47D breast
  GI50: 2.52 µM and 0.644 µM
  TGI: > 100 µM
RXF 393 renal
  GI50: 0.0855 µM and 0.232 µM
  TGI: 0.531 µM and 1.14 µM
NCI-H23 lung
  GI50: 0.218 µM and 0.295 µM
  TGI: 1.27 µM and > 4.86 µM
OVCAR-5 ovarian
  GI50: 0.557 µM and 1.05 µM
  TGI: > 100 µM
MDA-MB-231 breast
  GI50: 1.33 µM and 0.624 µM
  TGI: 27.4 µM and > 7.83 µM
OVCAR-8 ovarian
  GI50: 0.417 µM and 0.526 µM
  TGI: 2.91 µM and > 7.79 µM
